Results as given in patent US20120121591A1 (priority 2009, published 2012).
Where two headings read alike, the source gives them in different places. Positions of bridges follow the written chain, without caps; N, C: chain ends. Residues, ends and D or L forms follow the SMILES beside them.

How the values were obtained:
Format in all cases: cell-based
[1] = test system: IFN-g secretion from T cells in human whole blood
[2] = test system: IL-2 secretion from T cells in human whole blood; conditions: read-out: WB (IL-2) IC50 (nM, Avg)
hKv1.3 = hKv1.3 (Homo sapiens, UniProt P22001); assay: cell-based; conditions: Kv1.3 (IWQ) IC50 (nM, Avg)
[3] = read-out: WB (IFNg) IC5- (nM, Avg)
[4] = read-out: WB (IFNg) IC50 (nM, Avg)

Sequence of hKv1.3 (P22001 whole entry): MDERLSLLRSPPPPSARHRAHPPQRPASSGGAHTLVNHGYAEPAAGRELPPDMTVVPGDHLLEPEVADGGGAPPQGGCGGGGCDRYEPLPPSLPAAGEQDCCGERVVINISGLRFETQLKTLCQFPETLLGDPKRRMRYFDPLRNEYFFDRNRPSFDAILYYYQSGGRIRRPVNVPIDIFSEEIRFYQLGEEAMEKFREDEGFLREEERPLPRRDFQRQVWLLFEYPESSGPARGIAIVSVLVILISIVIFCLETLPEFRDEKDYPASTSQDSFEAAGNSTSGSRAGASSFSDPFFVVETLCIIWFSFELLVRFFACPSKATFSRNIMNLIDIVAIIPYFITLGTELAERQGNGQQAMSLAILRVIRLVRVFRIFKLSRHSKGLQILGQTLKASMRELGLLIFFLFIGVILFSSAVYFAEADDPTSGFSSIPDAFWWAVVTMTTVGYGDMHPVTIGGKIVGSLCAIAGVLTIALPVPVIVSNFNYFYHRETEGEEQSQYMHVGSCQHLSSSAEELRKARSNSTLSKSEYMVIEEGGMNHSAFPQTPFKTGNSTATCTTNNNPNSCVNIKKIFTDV

`CC[C@H](C)[C@@H]1NC(=O)[C@@H](NC(=O)[C@H](CO)NC(=O)[C@@H](N)CCCNC(=N)N)CSSC[C@@H](C(=O)O)NC(=O)[C@H]([C@@H](C)O)NC(=O)CNC(=O)[C@@H]2CSSC[C@@H]3NC(=O)[C@H](CCC(N)=O)NC(=O)[C@H](Cc4ccccc4)NC(=O)[C@H](C)NC(=O)[C@H](CCC(=O)O)NC(=O)[C@H](CSSC[C@H](NC(=O)[C@H](Cc4ccccc4)NC(=O)[C@H](CO)NC(=O)[C@H](CC(C)C)NC(=O)[C@H](CCCNC(=N)N)NC(=O)[C@H](Cc4ccc(O)cc4)NC(=O)[C@H](CCCCN)NC(=O)[C@H](CCSC)NC(=O)[C@H](CO)NC(=O)[C@H](Cc4c[nH]cn4)NC(=O)[C@H](CCCCN)NC3=O)C(=O)N[C@@H](CCCNC(=N)N)C(=O)N[C@@H](CCCCN)C(=O)N[C@@H]([C@@H](C)O)C(=O)N2)NC(=O)[C@H](CCCNC(=N)N)NC(=O)[C@H](CO)NC(=O)[C@H](CCCCN)NC(=O)[C@@H]2CCCN2C(=O)[C@H]([C@@H](C)CC)NC(=O)[C@H]([C@@H](C)O)NC(=O)[C@H](CC(=O)O)NC1=O` [[Glu13]ShK] gave an IC50 [1, 3] of 1.1 nM, an IC50 [2] of 0.785 nM and an IC50 (hKv1.3) of 0.157 nM.
`CC[C@H](C)[C@@H]1NC(=O)[C@@H](NC(=O)[C@H](CO)NC(=O)[C@@H](N)CCCNC(=N)N)CSSC[C@@H](C(=O)O)NC(=O)[C@H]([C@@H](C)O)NC(=O)CNC(=O)[C@@H]2CSSC[C@@H]3NC(=O)[C@H](CCC(N)=O)NC(=O)[C@H](Cc4ccccc4)NC(=O)[C@H](C)NC(=O)[C@H]([C@@H](C)O)NC(=O)[C@H](CSSC[C@H](NC(=O)[C@H](Cc4ccccc4)NC(=O)[C@H](CO)NC(=O)[C@H](CC(C)C)NC(=O)[C@H](CCCNC(=N)N)NC(=O)[C@H](Cc4ccc(O)cc4)NC(=O)[C@H](CCCCN)NC(=O)[C@H](CCSC)NC(=O)[C@H](CO)NC(=O)[C@H](Cc4c[nH]cn4)NC(=O)[C@H](CCCCN)NC3=O)C(=O)N[C@@H](CCC(=O)O)C(=O)N[C@@H](CCCCN)C(=O)N[C@@H]([C@@H](C)O)C(=O)N2)NC(=O)[C@H](CCCNC(=N)N)NC(=O)[C@H](CO)NC(=O)[C@H](CCCCN)NC(=O)[C@@H]2CCCN2C(=O)[C@H]([C@@H](C)CC)NC(=O)[C@H]([C@@H](C)O)NC(=O)[C@H](CC(=O)O)NC1=O` [[Glu29]ShK] showed an IC50 [1, 3] of 1.96 nM, an IC50 [2] of 0.73 nM and an IC50 (hKv1.3) of 0.142 nM.
`CC[C@H](C)[C@@H]1NC(=O)[C@@H](NC(=O)[C@H](CO)NC(=O)[C@@H](N)CCCNC(=N)N)CSSC[C@@H](C(=O)O)NC(=O)[C@H]([C@@H](C)O)NC(=O)CNC(=O)[C@@H]2CSSC[C@@H]3NC(=O)[C@H](CCC(N)=O)NC(=O)[C@H](Cc4ccccc4)NC(=O)[C@H](C)NC(=O)[C@H]([C@@H](C)O)NC(=O)[C@H](CSSC[C@H](NC(=O)[C@H](Cc4ccccc4)NC(=O)[C@H](CO)NC(=O)[C@H](CC(C)C)NC(=O)[C@H](CCCNC(=N)N)NC(=O)[C@H](Cc4ccc(O)cc4)NC(=O)[C@H](CCCCN)NC(=O)[C@H](CCSC)NC(=O)[C@H](CO)NC(=O)[C@H](Cc4c[nH]cn4)NC(=O)[C@H](CCCCN)NC3=O)C(=O)N[C@@H](CCCNC(=N)N)C(=O)N[C@@H](CCCCN)C(=O)N[C@@H]([C@@H](C)O)C(=O)N2)NC(=O)[C@H](CCCNC(=N)N)NC(=O)[C@H](CO)NC(=O)[C@H](CCCCN)NC(=O)[C@@H]2CCCN2C(=O)[C@H]([C@@H](C)CC)NC(=O)[C@H](CCCNC(=N)N)NC(=O)[C@H](CC(=O)O)NC1=O` [[Arg6]ShK] showed an IC50 [1, 4] of 0.4 nM, an IC50 [2] of 0.246 nM and an IC50 (hKv1.3) of 0.178 nM.
With `CC[C@H](C)[C@@H]1NC(=O)[C@@H](NC(=O)[C@H](CO)NC(=O)[C@@H](N)CCCNC(=N)N)CSSC[C@@H](C(=O)O)NC(=O)[C@H]([C@@H](C)O)NC(=O)CNC(=O)[C@@H]2CSSC[C@@H]3NC(=O)[C@H](CCC(N)=O)NC(=O)[C@H](Cc4cccc5ccccc45)NC(=O)[C@H](C)NC(=O)[C@H]([C@@H](C)O)NC(=O)[C@H](CSSC[C@H](NC(=O)[C@H](Cc4ccccc4)NC(=O)[C@H](CO)NC(=O)[C@H](CC(C)C)NC(=O)[C@H](CCCNC(=N)N)NC(=O)[C@H](Cc4ccc(O)cc4)NC(=O)[C@H](CCCCN)NC(=O)[C@H](CCSC)NC(=O)[C@H](CO)NC(=O)[C@H](Cc4c[nH]cn4)NC(=O)[C@H](CCCCN)NC3=O)C(=O)N[C@@H](CCCNC(=N)N)C(=O)N[C@@H](CCCCN)C(=O)N[C@@H]([C@@H](C)O)C(=O)N2)NC(=O)[C@H](CCCNC(=N)N)NC(=O)[C@H](CO)NC(=O)[C@H](CCCCN)NC(=O)[C@@H]2CCCN2C(=O)[C@H]([C@@H](C)CC)NC(=O)[C@H]([C@@H](C)O)NC(=O)[C@H](CC(=O)O)NC1=O` [[1-Nal15]ShK] the IC50 [1, 4] was 0.291 nM, the IC50 [2] was 0.184 nM and the IC50 (hKv1.3) was 0.072 nM.
`CC[C@H](C)[C@@H]1NC(=O)[C@H](CC(=O)O)NC(=O)[C@H]([C@@H](C)O)NC(=O)[C@@H]2CSSC[C@@H]3NC(=O)[C@H](CC(C)C)NC(=O)[C@H](CC(N)=O)NC(=O)[C@H](CC(C)C)NC(=O)[C@H](CCCNC(=N)N)NC(=O)[C@H](Cc4ccc(O)cc4)NC(=O)[C@H](CCCCN)NC(=O)[C@H](CCSC)NC(=O)[C@H](CO)NC(=O)[C@H]([C@@H](C)O)NC(=O)[C@H](CCCNC(=N)N)NC(=O)[C@H](CSSC[C@H](NC(=O)[C@H]([C@@H](C)O)NC(=O)[C@H](CCCCN)NC(=O)[C@H](CCCNC(=N)N)NC3=O)C(=O)NCC(=O)N[C@@H](CO)C(=O)N[C@H](C(=O)O)CSSC[C@H](NC(=O)[C@@H](NC(=O)[C@@H](N)CCCNC(=N)N)[C@@H](C)O)C(=O)N[C@@H](CCCCN)C(=O)N[C@@H](CC(=O)O)C(=O)N[C@@H](CC(C)C)C(=O)N[C@@H]([C@@H](C)CC)C(=O)N3CCC[C@H]3C(=O)N[C@@H](C(C)C)C(=O)N[C@@H](CO)C(=O)N[C@@H](CCC(=O)O)C(=O)N2)NC(=O)[C@H](CCCNC(=N)N)NC1=O` [HmK, reference compound] (H-RTCKDLIPVSECTDIRCRTSMKYRLNLCRKTCGSC-OH; disulfide 3-35, 12-28, 17-32) was tested, and the IC50 [1, 4] was 1.2 nM, the IC50 [2] was 0.85 nM and the IC50 (hKv1.3) was 0.9 nM.
`CC[C@H](C)[C@@H]1NC(=O)[C@H]([C@@H](C)O)NC(=O)[C@H](CC(=O)O)NC(=O)[C@H](CCC(=O)O)NC(=O)[C@@H](NC(=O)[C@H](CO)NC(=O)[C@@H](N)CCCNC(=N)N)CSSC[C@@H](C(N)=O)NC(=O)[C@H]([C@@H](C)O)NC(=O)CNC(=O)[C@@H]2CSSC[C@@H]3NC(=O)[C@H](CCCCN)NC(=O)[C@H](Cc4ccccc4)NC(=O)[C@H](C)NC(=O)[C@H]([C@@H](C)O)NC(=O)[C@H](CSSC[C@H](NC(=O)[C@H](Cc4ccccc4)NC(=O)[C@H](CO)NC(=O)[C@H](CC(C)C)NC(=O)[C@H](CCCNC(=N)N)NC(=O)[C@H](Cc4ccc(O)cc4)NC(=O)[C@H](CCCCN)NC(=O)[C@H](CCSC)NC(=O)[C@H](CO)NC(=O)[C@H](Cc4c[nH]cn4)NC(=O)[C@H](CCCNC(=N)N)NC3=O)C(=O)N[C@@H](CCCCN)C(=O)N[C@@H](CCCNC(=N)N)C(=O)N[C@@H]([C@@H](C)O)C(=O)N2)NC(=O)[C@H](CCCNC(=N)N)NC(=O)[C@H](CCC(=O)O)NC(=O)[C@H](CCC(=O)O)NC(=O)[C@@H]2CCCN2C1=O` [[Glu4,9,10; Lys16,29;Arg18, 30]ShK-amide] (H-RSCEDTIPEERCTAFKCRHSMKYRLSFCKRTCGTC-NH2; disulfide 3-35, 12-28, 17-32) gave an IC50 [1, 4] of 0.513 nM, an IC50 [2] of 0.204 nM and an IC50 (hKv1.3) of 0.059 nM.
`CC[C@H](C)[C@@H]1NC(=O)[C@@H](NC(=O)[C@H](CO)NC(=O)[C@@H](N)CCCNC(=N)N)CSSC[C@@H](C(N)=O)NC(=O)[C@H]([C@@H](C)O)NC(=O)CNC(=O)[C@@H]2CSSC[C@@H]3NC(=O)[C@H](CCCCN)NC(=O)[C@H](Cc4ccccc4)NC(=O)[C@H](C)NC(=O)[C@H]([C@@H](C)O)NC(=O)[C@H](CSSC[C@H](NC(=O)[C@H](Cc4ccccc4)NC(=O)[C@H](CO)NC(=O)[C@H](CC(C)C)NC(=O)[C@H](CCCNC(=N)N)NC(=O)[C@H](Cc4ccc(O)cc4)NC(=O)[C@H](CCCCN)NC(=O)[C@H](CCSC)NC(=O)[C@H](CO)NC(=O)[C@H](Cc4c[nH]cn4)NC(=O)[C@H](CCCNC(=N)N)NC3=O)C(=O)N[C@@H](CCCCN)C(=O)N[C@@H](CCCNC(=N)N)C(=O)N[C@@H]([C@@H](C)O)C(=O)N2)NC(=O)[C@H](CCCNC(=N)N)NC(=O)[C@H](CO)NC(=O)[C@H](CCCCN)NC(=O)[C@@H]2CCCN2C(=O)[C@H]([C@@H](C)CC)NC(=O)[C@H]([C@@H](C)O)NC(=O)[C@H](CC(=O)O)NC1=O` [[Lys16, 29;Arg18,30]ShK-amide] was tested, and the IC50 [1, 4] was 0.242 nM, the IC50 [2] was 0.26 nM and the IC50 (hKv1.3) was 0.401 nM.
`CCC[C@@H]1NC(=O)[C@H](CO)NC(=O)[C@H](Cc2c[nH]cn2)NC(=O)[C@H](CCCCN)NC(=O)[C@@H]2CSSC[C@@H]3NC(=O)[C@H]([C@@H](C)O)NC(=O)[C@H](CCCCN)NC(=O)[C@H](CCCNC(=N)N)NC(=O)[C@H](CSSC[C@H](NC(=O)[C@H](CCCNC(=N)N)NC(=O)[C@H](CO)NC(=O)[C@H](CCCCN)NC(=O)[C@@H]4CCCN4C(=O)[C@H]([C@@H](C)CC)NC(=O)[C@H]([C@@H](C)O)NC(=O)[C@H](CC(=O)O)NC(=O)[C@H]([C@@H](C)CC)NC(=O)[C@@H](NC(=O)[C@H](CO)NC(=O)[C@@H](N)CCCNC(=N)N)CSSC[C@@H](C(=O)N[C@@H](CC(=O)O)C(N)=O)NC(=O)[C@H]([C@@H](C)O)NC(=O)CNC3=O)C(=O)N[C@@H]([C@@H](C)O)C(=O)N[C@@H](C)C(=O)N[C@@H](Cc3ccccc3)C(=O)N[C@@H](CCCCN)C(=O)N2)NC(=O)[C@H](Cc2ccccc2)NC(=O)[C@H](CO)NC(=O)[C@H](CC(C)C)NC(=O)[C@H](CCCNC(=N)N)NC(=O)[C@H](Cc2ccc(O)cc2)NC(=O)[C@H](CCCCN)NC1=O` [[Lys16,Nva21]ShK-Asp-amide] showed an IC50 [1, 4] of 0.349 nM, an IC50 [2] of 0.255 nM and an IC50 (hKv1.3) of 0.28 nM.
